Measurements taken from patent US11339185B2, “Cyclic dinucleotides as anticancer agents” (Bristol-Myers Squibb Company, priority 2018, dated 2022).
Like-named read-outs stand apart in the source and are kept apart here.

Assays:
[1] = molecular target: T1, STING AQ: His-TVMV-S-hSTING(155-341)-G230A-R293Q (Homo sapiens, UniProt Q86WV6, G230A/H232R/R293Q); assay: STING HTRF binding assay (time resolved FRET competition), STING AQ; details: 20 nM His-tagged STING AQ cytoplasmic domain, 40 nM fluorescein-labeled cGAMP analog probe, one hour; read-out: HTRF Binding Assays IC50 (μM) AQ
T1 construct: STING AQ: His-TVMV-S-hSTING(155-341)-G230A-R293Q
Description: (§1) A time resolved FRET-based competition binding assay was used to assess test article binding to STING WT and STING AQ. His-tagged STING cytoplasmic domain (WT or AQ) at a concentration of 20 nM was incubated with 2.5 nM Tb-labeled anti-His antibody, test compound, and fluorescein-labeled cGAMP analog probe (BioLog cat. no. C195) at a concentration of 200 nM (STING WT) or 40 nM (STING AQ) in PBS containing 0.005% Tween-20 and 0.1% BSA for one hour. Fluorescence at 495 nm and 520 nm was measured using an EnVision microplate reader to quantify FRET between Tb-labeled anti-His antibody and fluorescein-labeled probe. Background was defined as the signal obtained in the absence of STING protein, and background subtracted FRET ratios were normalized to the maximum signal obtained in the absence of test compound. These values were converted to a percent inhibition. Percent inhibition was determined for test compounds at 11 concentrations. The IC50, defined as the concentration of competing test compound needed to reduce specific binding of the probe by 50%, was calculated using the 4 parameter logistic equation to fit the data

[2] = tested on: THP1-Dual cells, IRF pathway (IRF3); assay: STING THP1 Reporter Assay, IRF pathway (secreted Lucia luciferase, QUANTI-Luc); format: cell-based; details: 10% human plasma, luciferase readout, 100% activation = 100 μM cGAMP, read-out: THP1 Reporter Assays EC50 (μM) IRF3
From the text: (§2) THP1-Dual™ cells were derived from the human THP-1 monocyte cell line by stable integration of two inducible reporter constructs. To this end, THP1-Dual™ cells allow the simultaneous study of the NF-κB pathway, by monitoring the activity of SEAP, and the IRF pathway by assessing the activity of a secreted luciferase (Lucia). Both reporter proteins are readily measurable in the cell culture supernatant when using QUANTI-Blue™, a SEAP detection reagent, and QUANTI-Luc™, a luciferase detection reagent.
(§3) THP1-Dual™ cells induce the activation of NF-κB in response to STING agonists. They also trigger the IRF pathway upon stimulation with STING agonists, such as cGAMP. Here, the THP-1-Dual cells were used to assess STING binders for function on the cellular level.
(§4) Serial dilutions of compounds in DMSO were added to low volume 384 well plates at 100 nl/well using an ECHO acoustic dispenser (Labcyte, model 550) to achieve final starting concentration of 100 μM in cell suspension. THP-1 Dual™ STING reporter cells (Invivogen, Dual cells cat #THPD-nfis) were added to the plates with compounds at 15,000 cells in 10 μL per well in RPMI media (Gibco, cat #11875) containing 10% human plasma in a low volume 384-well black wall clear bottom tissue culture plate (Corning, cat #3542) for SEAP assay and low volume solid white plate (Corning, cat #3826) for luciferase assay. One column of the plate was reserved for treatment with cGAMP at 100 μM for 100% activation calculation and one column for no treatment (DMSO only) for baseline activation. Plates were then incubated in 37 OC incubator at 5% CO2 for 20 hours.
(§5) In the SEAP assay, 5 μl of 2× QuantiBlue (Invivogen, cat #Rep-qb2) is added to 384 well black plates seeded with THP1 cells and incubated at 37° C. for 2 hours. Plates were read on the Envision (Perkin Elmer) at 620 nm wavelength (OD620). In the luciferase assay, 5 μl of Quantiluc (Invivogen, Rep-qlc2) is added to white 384 well plates seeded with THP1 cells and read at 5 minutes on the Envision (Perkin Elmer) using a luminescence protocol (RLU). For both cell lines, 100% activation was determined by value (RLU) of THP-1 Dual STING cells stimulated with 100 μM cGAMP (Invivogen, cat #TLRL-NACGA23-5).

[3] = tested on: THP1-Dual cells, NF-κB pathway; assay: STING THP1 Reporter Assay, NF-κB pathway (SEAP, QUANTI-Blue); format: cell-based; details: 10% human plasma, SEAP readout (OD620), 100% activation = 100 μM cGAMP, read-out: THP1 Reporter Assays EC50 (μM) NFkB
From the text: as §2, §3, §4, §5

[4] = molecular target: T2, STING WT: His-TVMV-S-hSTING(155-341)-H232R (Homo sapiens, UniProt Q86WV6, H232R); assay: STING HTRF binding assay (time resolved FRET competition), STING WT; details: 20 nM His-tagged STING WT cytoplasmic domain, 200 nM fluorescein-labeled cGAMP analog probe, one hour; read-out: HTRF Binding Assays IC50 (μM) WT
T2 construct: STING WT: His-TVMV-S-hSTING(155-341)-H232R
Description: as §1

T2 sequence (Q86WV6 with tags, fused parts or gaps H232R): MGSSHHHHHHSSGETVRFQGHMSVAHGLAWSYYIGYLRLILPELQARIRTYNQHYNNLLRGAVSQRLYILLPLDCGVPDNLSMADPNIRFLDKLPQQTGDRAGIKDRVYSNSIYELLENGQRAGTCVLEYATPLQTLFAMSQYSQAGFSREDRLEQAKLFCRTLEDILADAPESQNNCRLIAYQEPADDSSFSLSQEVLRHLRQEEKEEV
T1 sequence (Q86WV6 with tags, fused parts or gaps G230A/H232R/R293Q): as the sequence (Q86WV6 with tags, fused parts or gaps H232R) above, with G99A, R162Q counted along it

| SMILES | IC50 [1] | EC50 ([2]; 20 hours) | EC50 ([3]; 20 hours) | IC50 [4] | EC50 ([2]; Homo sapiens, THP1-Dual, 20 h) | EC50 ([3]; Homo sapiens, THP1-Dual, 20 h) |
| --- | --- | --- | --- | --- | --- | --- |
| NC(=O)c1cc([C@@H]2C[C@@H]3COP(=O)(S)O[C@H]4[C@@H](F)[C@H](n5cnc6c(N)ncnc65)O[C@@H]4COP(=O)(S)OC[C@H]32)ccn1 (single isomer, unassigned) [Example 10] | 2.3 µM | > 100 µM | > 100 µM | 40.9 µM |  |  |
| NC(=O)c1cc([C@@H]2C[C@@H]3COP(=O)(S)O[C@H]4[C@H](F)[C@H](n5cnc6c(N)ncnc65)O[C@@H]4COP(=O)(S)OC[C@H]32)ccn1 (single isomer, unassigned) [Example 11] | 10.1 µM |  |  | 52.5 µM | > 100 µM | > 100 µM |
| NC(=O)c1cc([C@@H]2C[C@@H]3COP(=O)(S)O[C@H]4[C@@H](F)[C@H](n5cnc6c(N)ncnc65)O[C@@H]4COP(=O)(O)OC[C@H]32)ccn1 (single isomer, unassigned) [Example 13] | 0.1 µM |  |  | 4.78 µM | 54.6 µM | 90 µM |
| NC(=O)c1cc([C@@H]2C[C@@H]3COP(O)(=S)O[C@H]4[C@@H](F)[C@H](n5cnc6c(N)ncnc65)O[C@@H]4COP(=O)(O)OCC32)ccn1 (single isomer, unassigned) [Example 14] | 7.78 µM |  |  | > 100 µM | > 100 µM | > 100 µM |
| NC(=O)c1cc([C@@H]2C[C@@H]3COP(=O)(S)OC[C@@H]4[C@@H](COP(=O)(S)OC[C@H]32)C[C@H]4n2cnc3c(N)ncnc32)ccn1 (single isomer, unassigned) [Example 15-1] | > 100 µM |  |  | > 100 µM | > 100 µM | > 100 µM |
| Nc1ncnc2c1ncn2[C@@H]1C[C@@H]2COP(=O)(S)O[C@H]3[C@@H](F)[C@H](n4cnc5c4ncn4ccnc54)O[C@@H]3COP(=O)(S)OC[C@H]21 (single isomer, unassigned) [Example 17-1] | 3.55 µM |  |  | > 100 µM | > 100 µM | > 100 µM |
| O=P1(S)OC[C@@H]2[C@@H](COP(=O)(S)O[C@H]3[C@@H](F)[C@H](n4cnc5c4ncn4ccnc54)O[C@@H]3CO1)C[C@H]2n1cnc2c(Cl)ncnc21 (single isomer, unassigned) [Example 18-1] | 26.4 µM |  |  | > 100 µM | > 100 µM | > 100 µM |
| O=P1(S)OC[C@@H]2[C@@H](COP(=O)(S)O[C@H]3[C@@H](F)[C@H](n4cnc5c4ncn4ccnc54)O[C@@H]3CO1)C[C@H]2n1cnc2c(Cl)ncnc21 (single isomer, unassigned) [Example 18-2] | 35.7 µM | > 100 µM | > 100 µM | > 100 µM |  |  |
| O=P1(S)OC[C@@H]2[C@@H](COP(=O)(S)O[C@H]3[C@@H](F)[C@H](n4cnc5c4ncn4ccnc54)O[C@@H]3CO1)C[C@H]2n1cnc2c(Cl)ncnc21 (single isomer, unassigned) [Example 18-3] | 2.81 µM | > 100 µM | > 100 µM | > 100 µM |  |  |
| O=P1(S)OC[C@@H]2[C@@H](COP(=O)(S)O[C@H]3[C@@H](F)[C@H](n4cnc5c4ncn4ccnc54)O[C@@H]3CO1)C[C@H]2n1cnc2c(Cl)ncnc21 (single isomer, unassigned) [Example 18-4] | 2.18 µM | > 100 µM | > 100 µM | 24.5 µM |  |  |
| NC(=O)c1cc([C@@H]2O[C@@H]3COP(=O)(S)OC[C@@H]4[C@@H](COP(=O)(S)O[C@@H]2[C@@H]3O)C[C@H]4n2cnc3c(N)ncnc32)ccn1 (single isomer, unassigned) [Example 20-2] | > 100 µM | > 100 µM | > 100 µM | > 100 µM |  |  |
| NC(=O)c1cc([C@@H]2O[C@@H]3COP(=O)(S)OC[C@@H]4[C@@H](COP(=O)(S)O[C@@H]2[C@@H]3O)C[C@H]4n2cnc3c(N)ncnc32)ccn1 (single isomer, unassigned) [Example 20-3] | 0.01 µM | 5.23 µM | 7.64 µM | 0.01 µM |  |  |
| Nc1ncnc2c1ncn2[C@@H]1O[C@@H]2COP(=O)(S)OC[C@@H]3[C@@H](COP(=O)(S)O[C@H]2[C@H]1F)C[C@H]3n1cnc2c(=O)n3cnnc3[nH]c21 (single isomer, unassigned) [Example 21-1] | 0.004 µM | 5.36 µM | 25 µM | 0.15 µM |  |  |

Next, values leading:

| IC50 [1] | EC50 ([2]; 20 hours) | EC50 ([3]; 20 hours) | IC50 [4] | EC50 ([2]; Homo sapiens, THP1-Dual, 20 h) | EC50 ([3]; Homo sapiens, THP1-Dual, 20 h) | SMILES |
| --- | --- | --- | --- | --- | --- | --- |
| 0.3 µM | > 100 µM | > 100 µM | 0.89 µM |  |  | Nc1ncnc2c1ncn2[C@@H]1C[C@@H]2COP(=O)(S)O[C@@H]3[C@H](F)[C@@H](COP(=O)(S)OC[C@H]21)O[C@H]3n1cnc2c1ncn1ccnc21 (single isomer, unassigned) [Example 8-3] |
| 0.08 µM | 26.1 µM | 32.4 µM | 0.35 µM |  |  | Nc1ncnc2c1ncn2[C@@H]1C[C@@H]2COP(=O)(S)O[C@@H]3[C@H](F)[C@@H](COP(=O)(S)OC[C@H]21)O[C@H]3n1cnc2c1ncn1ccnc21 (single isomer, unassigned) [Example 8-4] |
| 0.02 µM | 18.4 µM | 23.5 µM | 1.41 µM |  |  | NC(=O)c1cc([C@@H]2C[C@@H]3COP(=O)(S)O[C@H]4[C@@H](F)[C@H](n5cnc6c(N)ncnc65)O[C@@H]4COP(=O)(S)OC[C@H]32)ccn1 (single isomer, unassigned) [Example 9] |
| 0.46 µM | > 100 µM | > 100 µM | 39 µM |  |  | Nc1ncnc2c1ncn2[C@@H]1C[C@@H]2COP(=O)(S)O[C@H]3[C@@H](F)[C@H](n4cnc5c4ncn4ccnc54)O[C@@H]3COP(=O)(S)OC[C@H]21 (single isomer, unassigned) [Example 17-2] |
| 0.11 µM | 73.7 µM | 89.6 µM | 5.22 µM |  |  | Nc1ncnc2c1ncn2[C@@H]1C[C@@H]2COP(=O)(S)O[C@H]3[C@@H](F)[C@H](n4cnc5c4ncn4ccnc54)O[C@@H]3COP(=O)(S)OC[C@H]21 (single isomer, unassigned) [Example 17-3] |
| > 100 µM | > 100 µM | > 100 µM | > 100 µM |  |  | NC(=O)c1cc([C@@H]2O[C@@H]3COP(=O)(S)OC[C@@H]4[C@@H](COP(=O)(S)O[C@@H]2[C@@H]3O)C[C@H]4n2cnc3c(N)ncnc32)ccn1 (single isomer, unassigned) [Example 20-1] |
| 35.7 µM | > 100 µM | > 100 µM | > 100 µM |  |  | NC(=O)c1cc([C@@H]2O[C@@H]3COP(=O)(S)OC[C@@H]4[C@@H](COP(=O)(S)O[C@@H]2[C@@H]3O)C[C@H]4n2cnc3c(N)ncnc32)ccn1 (single isomer, unassigned) [Example 20-4] |
